Assay results as given in US9700541B2, “Seizure therapy” (Creighton University, priority 2012, dated 2017).
“Also recorded” adds a separate entry of the source.

System: acute mouse hippocampal slices
Assay: Extracellular recordings in CA3 stratum radiatum of acute hippocampal slices after complex I inhibition
Type: cell-based
Method: FIG. 5A depicts electrophysiological recordings showing inhibition of mitochondrial complex I of the electron transport chain creates a hyperexcitable environment in acute mouse hippocampal slices. Epilepsy is defined as a neuronal state of hyperexcitability and hypersynchrony. […] The middle trace is an expansion of field potential marked by an asterisk in the top trace. Time-frequency analysis was performed on the signals to examine the component frequencies occurring during the field potentials. High frequency oscillations (HF05) in the 100-200 Hz bandwidth (called ripples) are normal and reflect small clusters of neurons firing action potentials synchronously. […] Fast ripples occur in humans and animals with epilepsy and are biomarkers for seizure-genic foci.
In Kv1.1−/− hippocampal slices, pathological high frequency oscillations are prevalent throughout the in Kv1.1−/− hippocampal network. In addition, there is an increase in neurotransmitter release probabilities at specific hippocampal circuit synapses. To experimentally mimic the mitochondrial pathology seen in epilepsy, a drug that impairs mitochondrial function at respiratory complex I, rotenone, was applied to control tissue. […] Fast ripples occur in humans and animals with epilepsy and are biomarkers for seizure-genic foci.

C=C(C)[C@H]1Cc2c(ccc3c2O[C@@H]2COc4cc(OC)c(OC)cc4[C@@H]2C3=O)O1 [rotenone]
promotion of seizures (acute application of rotenone to control tissue): sufficient to promote seizures | rate and amplitudes of spontaneous field potentials (rotenone 100 nM, 30 min application): increases | high frequency oscillations (fast ripples), spectral organization (rotenone application, control tissue): spectral disorganization and the generation of faster HFOs; also recorded: promotes spectral disorganization and the generation of pathologic high frequency oscillations | intensity of ripples and fast ripples (rotenone applied to slices): increases | seizure-like events following high potassium (8 mM) (rotenone-treated vs vehicle-treated slice): greater in amplitude and longer in duration
